Measured values reported in PubChem BioAssay AID1918939 (Molecular Pharmacology Branch, DTP, NCI, 2023).

Test system: 653999-131-R-J2-PDC complex spheroid viability
Test: Anticancer human tumor 653999-131-R-J2-PDC patient-derived lung adenocarcinoma cell line growth inhibition
Details: for IC50: curve of first compound; for viability, T/C: stronger effect = lower value
How it was run: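 Complex spheroids of tumor cells with HUVEC and human MSCs, exposed to iadademstat combined with other agents. Each agent tested in half-log steps from near clinical Cmax (else 10 microM top), DMSO ≤0.25%.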

[1] = second compound 0.1 µM, first compound 0.0316 µM
[2] = second compound 0.1 µM, first compound 0.1 µM
[3] = second compound 0.1 µM, first compound 0.316 µM
[4] = second compound 0.1 µM, first compound 1 µM
[5] = second compound 0.316 µM, first compound 0.0316 µM
[6] = second compound 0.316 µM, first compound 0.1 µM
[7] = second compound 0.316 µM, first compound 0.316 µM
[8] = second compound 0.316 µM, first compound 1 µM
[9] = second compound 1 µM, first compound 0.0316 µM
[10] = second compound 1 µM, first compound 0.1 µM
[11] = second compound 1 µM, first compound 0.316 µM
[12] = second compound 1 µM, first compound 1 µM
[13] = second compound 3.16 µM, first compound 0.0316 µM
[14] = second compound 3.16 µM, first compound 0.1 µM
[15] = second compound 3.16 µM, first compound 0.316 µM
[16] = second compound 3.16 µM, first compound 1 µM
[17] = second compound 10 µM, first compound 0.0316 µM
[18] = second compound 10 µM, first compound 0.1 µM
[19] = second compound 10 µM, first compound 0.316 µM
[20] = second compound 10 µM, first compound 1 µM
[21] = second compound 0.1 µM, first compound 0.00316 µM
[22] = second compound 0.1 µM, first compound 0.01 µM
[23] = second compound 0.316 µM, first compound 0.00316 µM
[24] = second compound 0.316 µM, first compound 0.01 µM
[25] = second compound 1 µM, first compound 0.00316 µM
[26] = second compound 1 µM, first compound 0.01 µM
[27] = second compound 3.16 µM, first compound 0.00316 µM
[28] = second compound 3.16 µM, first compound 0.01 µM
[29] = second compound 10 µM, first compound 0.00316 µM
[30] = second compound 10 µM, first compound 0.01 µM
[31] = second compound 0.1 µM, first compound 0.00949 µM
[32] = second compound 0.1 µM, first compound 0.03 µM
[33] = second compound 0.1 µM, first compound 0.0949 µM
[34] = second compound 0.1 µM, first compound 0.3 µM
[35] = second compound 0.316 µM, first compound 0.00949 µM
[36] = second compound 0.316 µM, first compound 0.03 µM
[37] = second compound 0.316 µM, first compound 0.0949 µM
[38] = second compound 0.316 µM, first compound 0.3 µM
[39] = second compound 1 µM, first compound 0.00949 µM
[40] = second compound 1 µM, first compound 0.03 µM
[41] = second compound 1 µM, first compound 0.0949 µM
[42] = second compound 1 µM, first compound 0.3 µM
[43] = second compound 3.16 µM, first compound 0.00949 µM
[44] = second compound 3.16 µM, first compound 0.03 µM
[45] = second compound 3.16 µM, first compound 0.0949 µM
[46] = second compound 3.16 µM, first compound 0.3 µM
[47] = second compound 10 µM, first compound 0.00949 µM
[48] = second compound 10 µM, first compound 0.03 µM
[49] = second compound 10 µM, first compound 0.0949 µM
[50] = second compound 10 µM, first compound 0.3 µM
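Further: spheroids exposed to agents for seven days before readout.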

CC(C)c1c(-c2ccccc2)nc2c(C#N)c[nH]n2c1=O + NC1CC1c1ccc(-c2cccc(O)c2)cc1
IC50 (second compound 0.1 µM): > 10 µM | IC50 (second compound 0.316 µM): > 10 µM | IC50 (second compound 1 µM): > 10 µM | IC50 (second compound 3.16 µM): > 10 µM | IC50 (second compound 10 µM): > 10 µM | viability, T/C [1]: 87.3% | viability, T/C [2]: 96.5% | viability, T/C [3]: 89.1% | viability, T/C [4]: 76.9% | viability, T/C (second compound 0.1 µM, first compound 3.16 µM): 80.1% | viability, T/C (second compound 0.1 µM, first compound 10 µM): 80.5% | viability, T/C [5]: 84% | viability, T/C [6]: 83.7% | viability, T/C [7]: 90.9% | viability, T/C [8]: 74.8% | viability, T/C (second compound 0.316 µM, first compound 3.16 µM): 64.2% | viability, T/C (second compound 0.316 µM, first compound 10 µM): 66.2% | viability, T/C [9]: 73.1% | viability, T/C [10]: 87.2% | viability, T/C [11]: 86.1% | viability, T/C [12]: 77.8% | viability, T/C (second compound 1 µM, first compound 3.16 µM): 66.7% | viability, T/C (second compound 1 µM, first compound 10 µM): 72.2% | viability, T/C [13]: 84.2% | viability, T/C [14]: 72.5% | viability, T/C [15]: 80.2% | viability, T/C [16]: 68.7% | viability, T/C (second compound 3.16 µM, first compound 3.16 µM): 77.5% | viability, T/C (second compound 3.16 µM, first compound 10 µM): 76.8% | viability, T/C [17]: 80.8% | viability, T/C [18]: 73.8% | viability, T/C [19]: 77.4% | viability, T/C [20]: 76.5% | viability, T/C (second compound 10 µM, first compound 3.16 µM): 68.9% | viability, T/C (second compound 10 µM, first compound 10 µM): 65.6%

CC[C@@]1(O)C(=O)OCc2c1cc1n(c2=O)Cc2cc3c(CN(C)C)c(O)ccc3nc2-1 + NC1CCC(NC2CC2c2ccccc2)CC1
IC50 (second compound 0.1 µM): 0.00465 µM | IC50 (second compound 0.316 µM): 0.00523 µM | IC50 (second compound 1 µM): 0.0048 µM | IC50 (second compound 3.16 µM): 0.00551 µM | IC50 (second compound 10 µM): 0.00687 µM | viability, T/C (second compound 0.1 µM, first compound 0.000316 µM): 89.3% | viability, T/C (second compound 0.1 µM, first compound 0.001 µM): 85.3% | viability, T/C [21]: 50.7% | viability, T/C [22]: 40.2% | viability, T/C [1]: 27.5% | viability, T/C [2]: 19.8% | viability, T/C (second compound 0.316 µM, first compound 0.000316 µM): 87% | viability, T/C (second compound 0.316 µM, first compound 0.001 µM): 80.4% | viability, T/C [23]: 57.9% | viability, T/C [24]: 37.9% | viability, T/C [5]: 26.2% | viability, T/C [6]: 18% | viability, T/C (second compound 1 µM, first compound 0.000316 µM): 94.7% | viability, T/C (second compound 1 µM, first compound 0.001 µM): 73.2% | viability, T/C [25]: 61.6% | viability, T/C [26]: 35.9% | viability, T/C [9]: 25.1% | viability, T/C [10]: 21.6% | viability, T/C (second compound 3.16 µM, first compound 0.000316 µM): 78.7% | viability, T/C (second compound 3.16 µM, first compound 0.001 µM): 75.3% | viability, T/C [27]: 52.7% | viability, T/C [28]: 44.1% | viability, T/C [13]: 29.9% | viability, T/C [14]: 20.7% | viability, T/C (second compound 10 µM, first compound 0.000316 µM): 91.9% | viability, T/C (second compound 10 µM, first compound 0.001 µM): 77.9% | viability, T/C [29]: 63.9% | viability, T/C [30]: 44.3% | viability, T/C [17]: 27.1% | viability, T/C [18]: 19.7%

COc1cc(C2c3cc4c(cc3C(OC3OC5COC(C)OC5C(O)C3O)C3COC(=O)C23)OCO4)cc(OC)c1O (stereo not given) + NC1CCC(NC2CC2c2ccccc2)CC1
IC50 (second compound 0.1 µM): 0.0884 µM | IC50 (second compound 0.316 µM): 0.123 µM | IC50 (second compound 1 µM): 0.0645 µM | IC50 (second compound 3.16 µM): 0.168 µM | IC50 (second compound 10 µM): 0.241 µM | viability, T/C [31]: 70.8% | viability, T/C [32]: 61.6% | viability, T/C [33]: 48.6% | viability, T/C [34]: 38.2% | viability, T/C (second compound 0.1 µM, first compound 0.949 µM): 37.6% | viability, T/C (second compound 0.1 µM, first compound 3 µM): 28.3% | viability, T/C [35]: 68.6% | viability, T/C [36]: 63.7% | viability, T/C [37]: 54.5% | viability, T/C [38]: 36.6% | viability, T/C (second compound 0.316 µM, first compound 0.949 µM): 31.3% | viability, T/C (second compound 0.316 µM, first compound 3 µM): 29.7% | viability, T/C [39]: 74.5% | viability, T/C [40]: 52.6% | viability, T/C [41]: 50.2% | viability, T/C [42]: 35.7% | viability, T/C (second compound 1 µM, first compound 0.949 µM): 37.5% | viability, T/C (second compound 1 µM, first compound 3 µM): 26.8% | viability, T/C [43]: 71.5% | viability, T/C [44]: 66.6% | viability, T/C [45]: 55.9% | viability, T/C [46]: 44.9% | viability, T/C (second compound 3.16 µM, first compound 0.949 µM): 31.3% | viability, T/C (second compound 3.16 µM, first compound 3 µM): 30.3% | viability, T/C [47]: 68.3% | viability, T/C [48]: 60.6% | viability, T/C [49]: 57.7% | viability, T/C [50]: 49.9% | viability, T/C (second compound 10 µM, first compound 0.949 µM): 37.3% | viability, T/C (second compound 10 µM, first compound 3 µM): 31.3%

Nc1ccn(C2OC(CO)C(O)C2(F)F)c(=O)n1 (stereo not given) + NC1CCC(NC2CC2c2ccccc2)CC1
IC50 (second compound 0.1 µM): 0.00836 µM | IC50 (second compound 0.316 µM): 0.00264 µM | IC50 (second compound 1 µM): 0.00734 µM | IC50 (second compound 3.16 µM): 0.00664 µM | IC50 (second compound 10 µM): 0.023 µM | viability, T/C (second compound 0.1 µM, first compound 0.000949 µM): 64.2% | viability, T/C (second compound 0.1 µM, first compound 0.003 µM): 62.6% | viability, T/C [31]: 46.7% | viability, T/C [32]: 38.7% | viability, T/C [33]: 34.5% | viability, T/C [34]: 30.1% | viability, T/C (second compound 0.316 µM, first compound 0.000949 µM): 58.4% | viability, T/C (second compound 0.316 µM, first compound 0.003 µM): 45.5% | viability, T/C [35]: 47.8% | viability, T/C [36]: 30.8% | viability, T/C [37]: 30.6% | viability, T/C [38]: 27.3% | viability, T/C (second compound 1 µM, first compound 0.000949 µM): 56% | viability, T/C (second compound 1 µM, first compound 0.003 µM): 55.8% | viability, T/C [39]: 48.4% | viability, T/C [40]: 36.6% | viability, T/C [41]: 34.8% | viability, T/C [42]: 31.3% | viability, T/C (second compound 3.16 µM, first compound 0.000949 µM): 70.5% | viability, T/C (second compound 3.16 µM, first compound 0.003 µM): 52.2% | viability, T/C [43]: 47.5% | viability, T/C [44]: 45% | viability, T/C [45]: 34.8% | viability, T/C [46]: 33.1% | viability, T/C (second compound 10 µM, first compound 0.000949 µM): 65.2% | viability, T/C (second compound 10 µM, first compound 0.003 µM): 64.7% | viability, T/C [47]: 59% | viability, T/C [48]: 47.8% | viability, T/C [49]: 40.4% | viability, T/C [50]: 43.8%

Nc1ncn(C2CC(O)C(CO)O2)c(=O)n1 (stereo not given) + NC1CCC(NC2CC2c2ccccc2)CC1
IC50 (second compound 0.1 µM): > 1 µM | IC50 (second compound 0.316 µM): > 1 µM | IC50 (second compound 1 µM): > 1 µM | IC50 (second compound 3.16 µM): > 1 µM | IC50 (second compound 10 µM): > 1 µM | viability, T/C [21]: 102% | viability, T/C [22]: 89.1% | viability, T/C [1]: 91.4% | viability, T/C [2]: 69% | viability, T/C [3]: 68.9% | viability, T/C [4]: 70.7% | viability, T/C [23]: 93.3% | viability, T/C [24]: 105% | viability, T/C [5]: 87.5% | viability, T/C [6]: 82.7% | viability, T/C [7]: 75.8% | viability, T/C [8]: 64.4% | viability, T/C [25]: 92.1% | viability, T/C [26]: 86.5% | viability, T/C [9]: 86.9% | viability, T/C [10]: 75.1% | viability, T/C [11]: 81.8% | viability, T/C [12]: 62% | viability, T/C [27]: 87.1% | viability, T/C [28]: 87.6% | viability, T/C [13]: 94.2% | viability, T/C [14]: 81.4% | viability, T/C [15]: 77.4% | viability, T/C [16]: 78% | viability, T/C [29]: 93.5% | viability, T/C [30]: 99.3% | viability, T/C [17]: 85.8% | viability, T/C [18]: 86.6% | viability, T/C [19]: 73.3% | viability, T/C [20]: 82.5%
